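Briefly, cells in 96-well plates were exposed to five compound concentrations for 48 h, and endpoints were estimated by linear interpolation. At the GI50, growth is halved.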 The source made the active and inactive calls. Rule as the data show it: active = GI50 up to about 1.1 µM and inactive = higher.
What was measured:
Test in all cases: NCI-60 cell line screen, 48 h
[1] = tested on: A498
[2] = tested on: A549
[3] = tested on: CCRF-CEM
[4] = tested on: EKVX
[5] = tested on: HCC 2998
[6] = tested on: HCT-15
[7] = tested on: HL-60
[8] = tested on: HT-29
[9] = tested on: M14
[10] = tested on: MOLT-4
[11] = tested on: NCI-H226
[12] = tested on: NCI-H460
[13] = tested on: OVCAR-8
[14] = tested on: SF-295
[15] = tested on: SK-MEL-28
[16] = tested on: SK-MEL-2
[17] = tested on: SK-OV-3
[18] = tested on: SR
[19] = tested on: NCI/ADR-RES

Row | SMILES | GI50 [1] | GI50 [2] | GI50 [3] | GI50 [4] | GI50 [5] | GI50 [6] | GI50 [7] | GI50 [8] | GI50 [9] | GI50 [10] | GI50 [11] | GI50 [12] | GI50 [13] | GI50 [14] | GI50 [15] | GI50 [16] | GI50 [17] | GI50 [18] | GI50 [19]
1 | CC(C)c1cccc(C(C)C)c1NC1=CC(=O)C(=O)c2ccccc21 | > 100 µM (inactive) | > 100 µM (inactive) | > 100 µM (inactive) | > 100 µM (inactive) | > 100 µM (inactive) | > 100 µM | 77.8 µM (inactive) | > 100 µM (inactive) | > 100 µM (inactive) | 58.5 µM (inactive) | > 100 µM (inactive) | > 100 µM (inactive) | > 100 µM (inactive) | > 100 µM (inactive) | > 100 µM (inactive) | > 100 µM (inactive) | > 100 µM (inactive) | 35.5 µM (inactive) | –
2 | COC(=O)C(=O)C(C(=O)C(=O)Nc1cccc(C(C)=O)c1)c1nc2ccc([N+](=O)[O-])cc2nc1O (configuration not stated) | > 100 µM (inactive) | > 100 µM (inactive) | > 100 µM (inactive) | > 100 µM (inactive) | > 100 µM (inactive) | > 100 µM | 80 µM (inactive) | > 100 µM (inactive) | > 100 µM (inactive) | > 100 µM (inactive) | > 100 µM (inactive) | > 100 µM (inactive) | > 100 µM (inactive) | > 100 µM (inactive) | > 100 µM (inactive) | > 100 µM (inactive) | > 100 µM (inactive) | > 100 µM (inactive) | –
3 | N#Cc1nnc2ccccc2c1N | – | > 100 µM (inactive) | – | > 100 µM (inactive) | > 100 µM (inactive) | > 100 µM | – | > 100 µM (inactive) | > 100 µM (inactive) | > 100 µM (inactive) | > 100 µM (inactive) | > 100 µM (inactive) | > 100 µM (inactive) | – | > 100 µM (inactive) | > 100 µM (inactive) | – | > 100 µM (inactive) | > 100 µM (inactive)
4 | FC(F)(F)c1nc(Br)[nH]c1C(F)(F)F | – | > 100 µM (inactive) | 66.5 µM (inactive) | > 100 µM (inactive) | 49.9 µM (inactive) | > 100 µM | > 100 µM (inactive) | > 100 µM (inactive) | > 100 µM (inactive) | > 100 µM (inactive) | 51.9 µM (inactive) | > 100 µM (inactive) | > 100 µM (inactive) | > 100 µM (inactive) | > 100 µM (inactive) | 38.4 µM (inactive) | > 100 µM (inactive) | 35.6 µM (inactive) | –
5 | O=C(Nc1ccc(C(F)(F)F)cc1[N+](=O)[O-])C(=O)C1NC(=S)NC1=O (configuration not stated) | 53 µM (inactive) | > 100 µM (inactive) | > 100 µM (inactive) | 4.86 µM (inactive) | > 100 µM (inactive) | > 100 µM | > 100 µM (inactive) | > 100 µM (inactive) | > 100 µM (inactive) | > 100 µM (inactive) | 11 µM (inactive) | > 100 µM (inactive) | > 100 µM (inactive) | > 100 µM (inactive) | > 100 µM (inactive) | > 100 µM (inactive) | > 100 µM (inactive) | > 100 µM (inactive) | –
6 | O=C(Nc1ccc2[nH]c(C(=O)N3CC(CCl)c4c3cc([N+](=O)[O-])c3ccccc43)cc2c1)Nc1ccc2[nH]c(C(=O)N3CC(CCl)c4c3cc([N+](=O)[O-])c3ccccc43)cc2c1 (configuration not stated) | > 100 µM (inactive) | > 100 µM (inactive) | 22.4 µM (inactive) | > 100 µM (inactive) | – | > 100 µM | – | – | 31.3 µM (inactive) | – | > 100 µM (inactive) | > 100 µM (inactive) | – | > 100 µM (inactive) | > 100 µM (inactive) | > 100 µM (inactive) | > 100 µM (inactive) | – | > 100 µM (inactive)
7 | C[N+](C)(C)CC(=O)N/N=C(\C(=O)NC1=C(Cl)C(=O)c2ccccc2C1=O)C(C#N)c1csc(-c2ccc([N+](=O)[O-])cc2)n1 (configuration not stated) | > 100 µM (inactive) | > 100 µM (inactive) | > 100 µM (inactive) | 48.2 µM (inactive) | > 100 µM (inactive) | > 100 µM | > 100 µM (inactive) | > 100 µM (inactive) | > 100 µM (inactive) | > 100 µM (inactive) | > 100 µM (inactive) | > 100 µM (inactive) | > 100 µM (inactive) | > 100 µM (inactive) | > 100 µM (inactive) | > 100 µM (inactive) | > 100 µM (inactive) | 80.5 µM (inactive) | –
8 | CN1C(=O)CSC1=S [3-METHYL-RHODANINE] | > 100 µM (inactive) | > 100 µM (inactive) | > 100 µM (inactive) | – | – | > 100 µM | > 100 µM (inactive) | > 100 µM (inactive) | > 100 µM (inactive) | > 100 µM (inactive) | > 100 µM (inactive) | > 100 µM (inactive) | > 100 µM (inactive) | > 100 µM (inactive) | > 100 µM (inactive) | > 100 µM (inactive) | > 100 µM (inactive) | > 100 µM (inactive) | –

Reference: ChEMBL document CHEMBL1201862, “PubChem BioAssay data set” (2004)
